{"source": "paper PMC7536072", "about": "“Molecular and functional characterization of somatostatin-type signalling in a deuterostome invertebrate” (Open Biology, 2020)", "key": {"[1]": {"system": "CHO-K1 cells transfected with an empty pcDNA3.1(+) vector", "experiment": "luminescence control assay, CHO-K1 cells transfected with empty vector", "assay_type": "cell-based, Chinese hamster", "conditions": "10^-12 to 10^-5 M (figure S12), 0.1 % Triton X-100 = 100%", "description": "In order to characterize the candidate SS-type receptors, a G-protein-dependent receptor activation assay was employed. Chinese hamster ovary (CHO)-K1 cells stably overexpressing the calcium-sensitive bioluminescent reporter GFP-aequorin fusion protein (G5A) were used as a heterologous expression system. Plasmids containing A. rubens SS-type receptor cDNAs were co-transfected with the promiscuous human Gα16, which is widely used for receptor deorphanization assays. […] After 3 h incubation, a fixed volume of cells was injected sequentially into each well containing different concentrations of peptides using a FLUOstar Omega Plate Reader (BMG LABTECH, Ortenberg, Germany). Luminescence values were recorded over a 35 s period after injection. The total luminescence of each well over the 35 s period was calculated and normalized to the maximum value obtained in each experiment (100% activation) and to the value obtained with the vehicle media (0% activation). […] EC50 values were calculated from dose–response curves using Prism 6. The luminescence responses triggered by 10^−5 M ArSS1, 10^−5 M ArSS2 and vehicle media were analysed by one-way ANOVA using Bonferroni's multiple comparisons post hoc test in Prism 6. […]"}, "[2]": {"system": "ArSSR2", "experiment": "GFP-aequorin luminescence receptor activation assay, CHO-K1 cells, ArSSR2 + Gα16", "assay_type": "cell-based, Asterias rubens"}, "[3]": {"system": "ArSSR1", "experiment": "GFP-aequorin luminescence receptor activation assay, CHO-K1 cells, ArSSR1 + Gα16", "assay_type": "cell-based, Asterias rubens"}, "[4]": {"system": "apical muscle preparations from A. rubens", "experiment": "in vitro contractility of apical muscle preparations", "parameters": "species or system Asterias rubens", "conditions": "data not shown", "description": "Synthetic ArSS2 ([…], with a disulfide bridge between the cysteine residues) was custom synthesized (Peptide Protein Research Ltd, Fareham, UK) to enable testing of its pharmacological effects on in vitro preparations of organs/muscles from A. rubens. ArSS2 was tested for its in vitro effects on the contractility of tube foot, apical muscle and cardiac stomach preparations from at least six different specimens of A. rubens. Individual tube foot preparations were dissected from starfish arms with their corresponding ampulla intact. Then cotton ligatures were tied around the ambulacral body wall and the tube foot disc and then the external epithelium of the tube foot was scraped off using a blunt scalpel blade to facilitate penetration of peptides when tested in vitro, as described previously. Apical muscle preparations were dissected from the aboral body wall with approximately 1 cm strips of apical muscle tied at each end with cotton ligatures. Cardiac stomach preparations were dissected as described previously and then were tied at the aboral side of the cardiac stomach and around the oesophagus with cotton ligatures. […] Data collected from PowerLab were visualized as traces and analysed using LabChart (v. 8.0.7) software installed on a laptop computer (Lenovo E540, Windows 7 Professional). […]"}}, "note": "“Also recorded” adds a separate entry of the source. Bridges are numbered along the chain shown (N, C = ends). Where no end group is shown, it is not given here.", "data": [{"sequence": "RAKNARCMADFWKGRGLVDC (disulfide 7-20 (inferred)) [ArSS2]", "values": [{"measurement": "luminescence response in cells with empty vector", "setting": "[1]", "value": "do not trigger luminscence; also recorded: Neither ArSS1 nor ArSS2 elicited responses"}, {"measurement": "EC50", "setting": "[2]; ArSSR2 + Gα16 in CHO-K1 cells expressing GFP-aequorin (G5A), peptide 10^−21 to 10^−4 M, luminescence over 35 s, mean of at least three independent experiments, three repeats each, read-out: half-maximal response concentration (EC50)", "value": 0.0042, "unit": "nM"}, {"measurement": "mean total luminescence response relative to background", "setting": "[2]; ArSSR2, 10^−5 M, background detected with assay media or with ArSS1", "value": "166 303 times the background luminescence"}, {"measurement": "luminescence compared with control", "setting": "[2]; ArSSR2, 10^−5 M, vs BSA media (control) and, for ArSS2, vs ArSS1, one-way ANOVA, Bonferroni", "value": "significantly higher than the luminescence in cells exposed to ArSS1 or BSA media (control)"}, {"measurement": "triggering of luminescence", "setting": "[2]; ArSSR2, 10^−21 to 10^−4 M", "value": "caused dose-dependent luminescence"}, {"measurement": "EC50", "setting": "[3]; ArSSR1 + Gα16 in CHO-K1 cells expressing GFP-aequorin (G5A), peptide 10^−21 to 10^−4 M, luminescence over 35 s, mean of at least three independent experiments, three repeats each, read-out: half-maximal response concentration (EC50)", "value": 0.088, "unit": "nM"}, {"measurement": "luminescence compared with control", "setting": "[3]; ArSSR1, 10^−5 M, vs BSA media (control) and, for ArSS2, vs ArSS1, one-way ANOVA, Bonferroni", "value": "significantly higher than the luminescence in cells exposed to ArSS1 or BSA media (control)"}, {"measurement": "triggering of luminescence", "setting": "[3]; ArSSR1, 10^−21 to 10^−4 M", "value": "caused dose-dependent luminescence"}, {"measurement": "efficacy compared between receptors", "setting": "[3]; ArSSR1 and ArSSR2 vs ArSSR3, 10^−5 M", "value": "higher for ArSSR1 and ArSSR2 than for ArSSR3"}, {"measurement": "effect on contractility of apical muscle preparations", "setting": "[4]", "value": "did not cause relaxation; also recorded: no observable effects"}]}]}
